From publication PMC5030359, “Cathelicidin Antimicrobial Peptides with Reduced Activation of Toll-Like Receptor Signaling Have Potent Bactericidal Activity against Colistin-Resistant Bacteria” (mBio, 2016)
Converted amounts (≈) assume the structure as drawn. “And” between values parts separate entries of the source, which are not always exact repeats. Identical values can stand only once. Like-named read-outs stand apart in the source and are kept apart here. Bridge positions count the residues as written; N and C are the ends. Square brackets hold non-standard residues; d marks the D form. Peptide text beside a SMILES is read from it. * marks the point of attachment. X1 = CC[C@H](C)CCCCC(=O)*; Dab = NCC[C@H](N)C(=O)O

How the values were obtained:
K. pneumoniae = assay: Bacterial killing, colony formation (CFU); assay type: cell-based, Klebsiella pneumoniae; conditions: 2 µM; Fig. 5C (K. pneumoniae 59) and data not shown
Klebsiella pneumoniae = conditions: for # strains inhibited at 16 µg/ml peptide K. p.: strains with MIC of 16 µg/ml or less / strains tested
Experimental: (§1) The bacterial species tested are Klebsiella pneumoniae (K. p.), Serratia marcescens (S. m.), Enterobacter cloacae (E. cl.), Escherichia coli (E. c.), and Pseudomonas aeruginosa (P. a.). MICs were determined by the microdilution assay. […] The results are the median values of at least three independent assays.
(§2) Antimicrobial activity was determined using the broth microdilution method based on the guidelines of the Clinical and Laboratory Standards Institute (CLSI) ([39]), using cation-adjusted Mueller-Hinton broth (CAMHB) as the testing medium. Reference Gram-positive and Gram-negative bacteria were tested, including both enteric and Pseudomonas aeruginosa strains. Each MIC was determined in at least three independent assays.

Serratia marcescens = conditions: for # strains inhibited at 16 µg/ml peptide S. m.: strains with MIC of 16 µg/ml or less / strains tested
Experimental: as §1, §2

Enterobacter cloacae = conditions: strains with MIC of 16 µg/ml or less / strains tested
Experimental: as §1, §2

E. cloacae 4080 = assay: Bacterial killing, colony formation (CFU); assay type: cell-based, Enterobacter cloacae; conditions: 25 µg/ml kanamycin sulfate, E. cloacae 4080
Experimental: The number of CFU of E. cloacae 4080 were quantified as a function of time of incubation with a 2 µM concentration of the individual peptides. In the reactions with kanamycin (Kan), 25 µg/ml of kanamycin sulfate was used. […] The initial inoculum was 10^6 CFU in LB.

Experimental for 19 Gram-negative strains: (A) Sequences of the cathelicidins, the numbers of bacterial strains killed, and hRBC lysis by the cathelicidins. […] The bacterial species tested are Klebsiella pneumoniae (K. p.), Serratia marcescens (S. m.), Enterobacter cloacae (E. cl.), Escherichia coli (E. c.), and Pseudomonas aeruginosa (P. a.). MICs were determined by the microdilution assay. […] The results are the median values of at least three independent assays.
We tested a panel of cathelicidins for inhibiting growth of 19 Gram-negative strains from the family Enterobacteriaceae and the nonfermentative bacteria. The species tested were Enterobacter cloacae ([2]), Escherichia coli ([5]), Klebsiella pneumoniae ([4]), Pseudomonas aeruginosa ([4]), and Serratia marcescens ([4]). All of the strains selected have been characterized for their antibiotic resistance profiles.
as §2
Experimental for E. faecalis: as §2
Experimental for Escherichia coli: as §1, §2
Experimental for Pseudomonas aeruginosa: as §1, §2
Experimental for S. aureus: as §2

| SMILES | fold reduction in CFU, colistin-resistant K. pneumoniae (K. pneumoniae) | MIC K. pneumoniae 59 (Klebsiella pneumoniae; carbapenem-resistant, colistin-resistant clinical isolate (ST258)) | MIC (µM) K. pneumoniae 88 (Klebsiella pneumoniae; carbapenem-resistant, colistin-resistant clinical isolate (ST674), microbroth MIC (SD)) | # strains inhibited at 16 µg/ml peptide E. c. (Escherichia coli) | # strains inhibited at 16 µg/ml peptide P. a. (Pseudomonas aeruginosa) | # strains inhibited at 16 µg/ml peptide S. m. (Serratia marcescens) | # strains inhibited at 16 µg/ml peptide E. cl. (Enterobacter cloacae) | # strains inhibited at 16 µg/ml peptide K. p. (Klebsiella pneumoniae) | No. of strains inhibited at 16 µg/ml/total no. of strains (19 Gram-negative strains) | MIC E. faecalis 29212 (E. faecalis) | MIC E. faecalis 51299 (E. faecalis) | MIC S. aureus 25923 (S. aureus) | MIC S. aureus 29213 (S. aureus) | reduction of CFU over time (E. cloacae 4080) | concentration usually required to inhibit growth of S. marcescens strains (Serratia marcescens; S. marcescens strains) | No. of strains inhibited at 16 µg/ml/total no. of strains (19 Gram-negative strains; 19 Gram-negative strains, MIC of 16 µg/ml or less) |
| --- | --- | --- | --- | --- | --- | --- | --- | --- | --- | --- | --- | --- | --- | --- | --- | --- |
| CC[C@H](C)CCCCC(=O)N[C@@H](CCN)C(=O)N[C@H](C(=O)N[C@@H](CCN)C(=O)N[C@H]1CCNC(=O)[C@H]([C@@H](C)O)NC(=O)[C@H](CCN)NC(=O)[C@H](CCN)NC(=O)[C@H](CC(C)C)NC(=O)[C@@H](CC(C)C)NC(=O)[C@H](CCN)NC1=O)[C@@H](C)O [Colistin, colistin] (X1-[Dab]T[Dab][Dab][Dab][dL]L[Dab][Dab]T; lactam 4-C (inferred); N-terminus assumed) | 1.4 fold | 6.4 µM (≈ 7.48 µg/mL) | 6.4 µM (≈ 7.48 µg/mL) | – | – | – | – | – | – | – | – | – | – | – | – | – |
| CC[C@H](C)[C@H](NC(=O)[C@H](CCCCN)NC(=O)[C@H](C)NC(=O)[C@H](CCCCN)NC(=O)[C@H](CO)NC(=O)[C@H](CCCCN)NC(=O)[C@H](CCCNC(=N)N)NC(=O)[C@H](Cc1ccccc1)NC(=O)[C@H](Cc1ccccc1)NC(=O)[C@H](C)NC(=O)CNC(=O)[C@H](CC(C)C)NC(=O)[C@@H](N)CC(C)C)C(=O)NCC(=O)N[C@@H](CCCCN)C(=O)N[C@@H](C)C(=O)N[C@@H](Cc1ccccc1)C(=O)N[C@@H](CCCCN)C(=O)N[C@@H](CCCNC(=N)N)C(=O)N[C@H](C(=O)N[C@H](C(=O)N[C@@H](CCC(N)=O)C(=O)N[C@@H](CCCNC(=N)N)C(=O)N[C@H](C(=O)N[C@@H](CCCCN)C(=O)N[C@@H](C)C(=O)N[C@@H](Cc1ccccc1)C(=O)N[C@@H](CC(C)C)C(=O)N[C@@H](CCCNC(=N)N)C(=O)O)[C@@H](C)CC)C(C)C)[C@@H](C)CC [LL-29V2] (H-LLGAFFRKSKAKIGKAFKRIVQRIKAFLR-OH) | – | – | – | 4/6 | 1/4 | 1/3 | 1/2 | 4/4 | 4/19 | – | – | – | – | – | – | – |
| CC[C@H](C)[C@H](NC(=O)[C@@H](NC(=O)[C@@H]1CCCN1C(=O)[C@H](CO)NC(=O)[C@H](CC(C)C)NC(=O)[C@H](CCCCN)NC(=O)[C@H](CCCCN)NC(=O)[C@H](C)NC(=O)[C@H](CC(C)C)NC(=O)[C@H](CCCCN)NC(=O)[C@H](CCCCN)NC(=O)[C@H](CC(C)C)NC(=O)[C@H](CCCCN)NC(=O)[C@H](CCCCN)NC(=O)[C@H](CCCNC(=N)N)NC(=O)[C@H](CC(C)C)NC(=O)[C@H](CCCNC(=N)N)NC(=O)[C@H](CCCCN)NC(=O)[C@H](C)NC(=O)[C@H](CCCNC(=N)N)NC(=O)CN)C(C)C)C(=O)N1CCC[C@H]1C(=O)N[C@@H](CC(C)C)C(=O)N[C@@H](CC(C)C)C(=O)N[C@@H](Cc1c[nH]cn1)C(=O)N[C@@H](CC(C)C)C(=O)NCC(=O)O [BMAP-27C] (H-GRAKRLRKKLKKLAKKLSPVIPLLHLG-OH) | – | – | – | 6/6 | 4/4 | 2/3 | 2/2 | 4/4 | 17/19 | >32 µg/mL | >32 µg/mL | >32 µg/mL | 32 µg/mL (≈ 10.4 µM) | – | – | – |
| CC[C@H](C)[C@H](NC(=O)[C@@H](NC(=O)[C@@H]1CCCN1C(=O)[C@H](CO)NC(=O)[C@H](CC(C)C)NC(=O)[C@H](CCCCN)NC(=O)[C@H](CCCCN)NC(=O)[C@H](Cc1ccccc1)NC(=O)[C@H](CC(C)C)NC(=O)[C@H](CCCCN)NC(=O)[C@H](CCCCN)NC(=O)[C@H](Cc1ccccc1)NC(=O)[C@H](CCCCN)NC(=O)[C@H](CCCCN)NC(=O)[C@H](CCCNC(=N)N)NC(=O)[C@H](CC(C)C)NC(=O)[C@H](CCCNC(=N)N)NC(=O)[C@H](CCCCN)NC(=O)[C@H](Cc1ccccc1)NC(=O)[C@H](CCCNC(=N)N)NC(=O)CN)C(C)C)C(=O)N1CCC[C@H]1C(=O)N[C@@H](CC(C)C)C(=O)N[C@@H](CC(C)C)C(=O)N[C@@H](Cc1c[nH]cn1)C(=O)N[C@@H](CC(C)C)C(=O)NCC(=O)O [BMAP-27A] (H-GRFKRLRKKFKKLFKKLSPVIPLLHLG-OH; N-terminus and C-terminus assumed) | – | – | – | 6/6 | 4/4 | 3/3 | 2/2 | 4/4 | 19/19 | >32 µg/mL | >32 µg/mL | 16 µg/mL (≈ 4.92 µM) | 16 µg/mL (≈ 4.92 µM) | – | – | – |
| NC[C@H]1O[C@H](O[C@H]2[C@H](O)[C@@H](O[C@H]3O[C@H](CO)[C@@H](O)[C@H](N)[C@H]3O)[C@H](N)C[C@@H]2N)[C@H](O)[C@@H](O)[C@@H]1O [kanamycin] | – | – | – | – | – | – | – | – | – | – | – | – | – | only after a 2-h incubation | – | – |
| CC[C@H](C)[C@H](NC(=O)[C@H](CCCCN)NC(=O)[C@H](CCC(=O)O)NC(=O)[C@H](CCCCN)NC(=O)[C@H](CO)NC(=O)[C@H](CCCCN)NC(=O)[C@H](CCCNC(=N)N)NC(=O)[C@H](Cc1ccccc1)NC(=O)[C@H](Cc1ccccc1)NC(=O)[C@H](CC(=O)O)NC(=O)CNC(=O)[C@H](CC(C)C)NC(=O)[C@@H](N)CC(C)C)C(=O)NCC(=O)N[C@@H](CCCCN)C(=O)N[C@@H](CCC(=O)O)C(=O)N[C@@H](Cc1ccccc1)C(=O)N[C@@H](CCCCN)C(=O)N[C@@H](CCCNC(=N)N)C(=O)N[C@H](C(=O)N[C@H](C(=O)N[C@@H](CCC(N)=O)C(=O)N[C@@H](CCCNC(=N)N)C(=O)N[C@H](C(=O)N[C@@H](CCCCN)C(=O)N[C@@H](CC(=O)O)C(=O)N[C@@H](Cc1ccccc1)C(=O)N[C@@H](CC(C)C)C(=O)N[C@@H](CCCNC(=N)N)C(=O)O)[C@@H](C)CC)C(C)C)[C@@H](C)CC [LL-29] (H-LLGDFFRKSKEKIGKEFKRIVQRIKDFLR-OH; N-terminus and C-terminus assumed) | – | – | – | 2/6 | 0/4 | 0/3 | 1/2 | 0/4 | 4/19 | – | – | – | – | – | – | – |
| CC[C@H](C)[C@H](NC(=O)[C@H](CCCCN)NC(=O)[C@H](CCC(=O)O)NC(=O)[C@H](CCCCN)NC(=O)[C@H](CO)NC(=O)[C@H](CCCCN)NC(=O)[C@H](CCCNC(=N)N)NC(=O)[C@H](Cc1ccccc1)NC(=O)[C@H](Cc1ccccc1)NC(=O)[C@H](C)NC(=O)CNC(=O)[C@H](CC(C)C)NC(=O)[C@@H](N)CC(C)C)C(=O)NCC(=O)N[C@@H](CCCCN)C(=O)N[C@@H](C)C(=O)N[C@@H](Cc1ccccc1)C(=O)N[C@@H](CCCCN)C(=O)N[C@@H](CCCNC(=N)N)C(=O)N[C@H](C(=O)N[C@H](C(=O)N[C@@H](CCC(N)=O)C(=O)N[C@@H](CCCNC(=N)N)C(=O)N[C@H](C(=O)N[C@@H](CCCCN)C(=O)N[C@@H](CC(=O)O)C(=O)N[C@@H](Cc1ccccc1)C(=O)N[C@@H](CC(C)C)C(=O)N[C@@H](CCCNC(=N)N)C(=O)O)[C@@H](C)CC)C(C)C)[C@@H](C)CC [LL-29V] (H-LLGAFFRKSKEKIGKAFKRIVQRIKDFLR-OH) | – | – | – | 3/6 | 0/4 | 0/3 | 1/2 | 0/4 | 11/19 | – | – | – | – | – | – | – |
| CC[C@H](C)[C@H](NC(=O)[C@@H](NC(=O)[C@@H]1CCCN1C(=O)[C@H](CO)NC(=O)[C@H](CC(C)C)NC(=O)[C@H](CCCCN)NC(=O)[C@H](CCCCN)NC(=O)[C@H](Cc1ccccc1)NC(=O)[C@H](CC(C)C)NC(=O)[C@H](CCCCN)NC(=O)[C@H](CCCCN)NC(=O)[C@H](Cc1ccccc1)NC(=O)[C@H](CCCCN)NC(=O)[C@H](CCCCN)NC(=O)[C@H](CCCNC(=N)N)NC(=O)[C@H](Cc1ccccc1)NC(=O)[C@H](CCCNC(=N)N)NC(=O)[C@H](CCCCN)NC(=O)[C@H](Cc1ccccc1)NC(=O)[C@H](CCCNC(=N)N)NC(=O)CN)C(C)C)C(=O)N1CCC[C@H]1C(=O)N[C@@H](CC(C)C)C(=O)N[C@@H](CC(C)C)C(=O)N[C@@H](Cc1c[nH]cn1)C(=O)N[C@@H](CC(C)C)C(=O)NCC(=O)O [BMAP-27] (H-GRFKRFRKKFKKLFKKLSPVIPLLHLG-OH; N-terminus and C-terminus assumed) | – | – | – | 6/6 | 4/4 | 3/3 | 2/2 | 4/4 | 19 and 19/19 | >32 µg/mL | >32 µg/mL | 16 µg/mL (≈ 4.87 µM) | 16 µg/mL (≈ 4.87 µM) | – | 8 µg/mL | ≥ 16 |
